Experimental findings from PMC6368365, “Didehydro-Cortistatin A Inhibits HIV-1 by Specifically Binding to the Unstructured Basic Region of Tat” (mBio, 2019) are described below.

In assay [1] the target is T1, Hexim-1 (Homo sapiens, UniProt O94992).
T1 construct: endogenous in cells; host or cells: HeLa-CD4-LTR-LacZ (RNA immunoprecipitation); HeLa-CD4-LTR-Luc (immunofluorescence)
Nature of the assay: Confocal immunofluorescence of Hexim-1 subcellular localization. The assay is classed as cell-based. The conditions noted are these: HeLa-CD4-LTR-Luc cells. The source says:
(A) Sequence of the basic domains of HIV Tat HXB3, HIV Rev Bru and intracellular Hexim-1. […] Shown is confocal microscopy analysis of the subcellular localization of transfected FLAG-Tat or FLAG-Rev in the presence of DMSO or dCA in HeLa-CD4-LTR-Luc cells. Proteins were recognized with anti-FLAG and Alexa Fluor 568-tagged anti-IgG. Magnification 60×. Data are representative of n = 2 independent experiments. (C) Quantification of the nucleolar fluorescence of panel B using ImageJ. Data are the mean ± SEM from 3 to 4 different cells. […] HeLa-CD4-LTR-LacZ cells were infected with strain NL4-3 for 24 hours. The next day, compounds (dCA, 10 nM; KPT, 400 nM; and SCM, 10 nM) were added for 24 hours. Total, nuclear, and cytoplasmic mRNAs were extracted, and viral messages were determined by qRT-PCR. GAPDH was used for normalization. Data are the mean ± SD from n = 5 independent experiments. […] (G) Quantification of nuclear fluorescence of panel F using ImageJ. […] Statistical significance was determined using one-way ANOVA with post hoc Tukey’s test. ns, not significant; ***, P < 0.0001; **, P < 0.001.
Hexim-1 directly binds to cyclin T1 and is responsible for the inactivation of the kinase activity of P-TEFb ([35], [36]). […] Intracellular Hexim-1 was immunoprecipitated, and 7SK snRNP bound to Hexim-1 was extracted, reverse transcribed, and quantified by qRT-PCR as previously described ([42]) (Fig. 3E). […]

For assay [2], the system named is export function of HIV Rev. Nature of the assay: Viral mRNA export in NL4-3-infected CEM-SS cells (qRT-PCR). The assay is classed as cell-based, HIV-1. The conditions noted are these: dCA 30 nM, 24 hours. The source says:
If dCA were to bind the basic domain of Tat in its disordered form, then one would predict it might also bind to other basic peptide sequences and block their functions. The two well-known proteins that share a similar basic domain with Tat are HIV-1 Rev protein and the cellular protein Hexim-1 (Fig. 3A). As such, we investigated whether dCA could inhibit these similar basic domain functions. The basic domain of Rev is responsible for its nuclear localization ([31]); therefore, we assessed whether dCA could impact the subcellular localization of Rev (Fig. 3B) as previously shown for Tat ([10]). We transfected HeLa-CD4-LTR-Luc cells with a plasmid expressing FLAG-tagged Rev and assessed Rev localization in the presence of 100 nM dCA. […] Twenty-four hours later, cells were collected, and total, nuclear, and cytoplasmic mRNAs were extracted, reverse transcribed, and quantified by quantitative real-time PCR (qRT-PCR).
Cells were infected with the NL4-3 strain for 24 hours. […] Total, nuclear, and cytoplasmic mRNAs were extracted, and viral messages were measured by qRT-PCR. […] Statistical significance was determined using one-way ANOVA with post hoc Tukey’s test, comparing the DMSO condition to the other conditions. ***, P < 0.0001; **, P < 0.001; *, P < 0.01. […] Seventy hours later, viability was measured. […]
In general terms: Quantitative PCR measures a nucleic acid by following its amplification.

T1 sequence (O94992 whole entry): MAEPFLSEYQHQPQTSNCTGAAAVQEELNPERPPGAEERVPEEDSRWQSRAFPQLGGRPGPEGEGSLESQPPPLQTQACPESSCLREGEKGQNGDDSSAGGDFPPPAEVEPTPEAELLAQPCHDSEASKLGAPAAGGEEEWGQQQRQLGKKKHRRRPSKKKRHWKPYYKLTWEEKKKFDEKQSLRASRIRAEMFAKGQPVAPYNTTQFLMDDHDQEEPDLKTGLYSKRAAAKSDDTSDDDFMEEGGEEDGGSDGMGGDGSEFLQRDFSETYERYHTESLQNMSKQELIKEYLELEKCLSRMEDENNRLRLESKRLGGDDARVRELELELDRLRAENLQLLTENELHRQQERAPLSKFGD

Consider `CN(C)C1CC23CCC4(O2)C(=CCC2(C)C(c5ccc6ccncc6c5)=CCC24)C=C3C(O)C1O` (centres unmarked) [dCA, didehydro-cortistatin A], for which, in assay [1], the Hexim-1 nuclear localization result is reported as “did not have any effect”. Moreover, in assay [2], the “export function of HIV Rev in CEM-SS cells” value is given as “does not perturb the export function of HIV Rev in CEM-SS cells”.
